Earlier results on four compounds are cited in patent US20080274188A1, “Oral Vehicle For Systemic Pharmaceuticals” (priority 2005, published 2008).

Read-outs that look alike come from different tables or passages of the source.

The conditions of the data set: for Solubility water: words.

Regarding `Cc1onc(-c2ccccc2Cl)c1C(=O)N[C@@H]1C(=O)N2[C@@H]1SC(C)(C)[C@@H]2C(=O)O` [Cloxacillin, Cloxacillin (Na monohydrate)], for the setting “temperature not stated”, the Solubility water entry is reported as “soluble”.
As for `CC(=O)Nc1ccc(O)cc1` [Acetaminophen], the Solubility water result is “Cold-v slight” (cold water) and “Hot-considerably more” (hot water).
`COc1ccc2c3c1O[C@H]1[C@@H](O)C=C[C@H]4[C@@H](C2)N(C)CC[C@@]341` [Codeine phosphate]: the “Solubility water (ml of water for 1 g)” value (temperature not stated, 1 g in the stated ml) is recorded as 1 g in 2.5 ml water.
With `C1CNCCN1` [Piperazine], where the note is “temperature not stated”, the Solubility water result is “Freely soluble”.
